Results reported in patent US8084499B2, “Modified clay mineral” (Ajinomoto Co., Inc., priority 2006, dated 2011).

Test: Emulsion stability (B-type viscometer, 60 rpm viscosity / 6 rpm viscosity)
Details: emulsion compositions similar to Example 1, compound of formula (1) with given R1/R2 instead of cocoylarginine ethyl ester
Procedure: A B-type (Brookfield type) viscometer (manufactured by TOKYO KEIKI, DIGITAL VISCOMETER DVL-B) was used. About 100 ml of each emulsion composition was placed in a glass vial container, a rotor was appropriately selected, and the value obtained at a room temperature condition of 25° C., number of rotation of 6 or 60 rpm after 30 seconds was taken as the measurement value at each number of rotation. The measurement value at 60 rpm was divided by the measurement value at 6 rpm, and 0.10 to 0.19 was rated as ⊙, 0.20 to 0.29 was rated as ◯, 0.30 to 0.39 was rated as Δ, and not less than 0.40 was rated as x.

| Structure (SMILES) | emulsion stability, rating |
| --- | --- |
| CCCCCCCCCCCCCCCC(=O)NC(CCCNC(=N)N)C(=O)OCC (stereo not shown) [palmitic acid residue / ethyl group, N-palmitoylarginine ethyl ester cation] | ⊙ (0.10 to 0.19 was rated as ⊙) |
| CCCCCCCC/C=C\CCCCCCCC(=O)NC(CCCNC(=N)N)C(=O)OCC (stereo not shown) [oleic acid residue / ethyl group, N-oleylarginine ethyl ester cation] | ⊙ (0.10 to 0.19 was rated as ⊙) |
| CCCCCCCCCCCCCCCCCC(=O)N[C@@H](CCCNC(=N)N)C(=O)OCC [stearic acid residue / ethyl group, N-stearoylarginine ethyl ester cation] | ⊙ (0.10 to 0.19 was rated as ⊙) |
| CCCCCCCCCCCC(=O)NC(CCCNC(=N)N)C(=O)OCC(C)C (stereo not shown) [lauric acid residue / isobutyl group, N-lauroylarginine isobutyl ester cation] | ⊙ (0.10 to 0.19 was rated as ⊙) |
| CCCCCCCCCCCC(=O)N[C@@H](CCCNC(=N)N)C(=O)OC(C)C [lauric acid residue / isopropyl group, N-lauroylarginine isopropyl ester cation] | ⊙ (0.10 to 0.19 was rated as ⊙) |
| CCCCCCCCCCCC(=O)NC(CCCNC(=N)N)C(=O)OC(C)CC (stereo not shown) [lauric acid residue / s-butyl group, N-lauroylarginine s-butyl ester cation] | ⊙ (0.10 to 0.19 was rated as ⊙) |
| CCCCCCCCCCCC(=O)NC(CCCNC(=N)N)C(=O)OCC (stereo not shown) [lauric acid residue / ethyl group, N-lauroylarginine ethyl ester cation] | ⊙ (0.10 to 0.19 was rated as ⊙) |
